Test results published in ChEMBL document CHEMBL1150516, “Synthesis and biological activity of C-6 modified derivatives of the glucosidase inhibitor 1-deoxynojirimycin” (Bioorg Med Chem Lett, 1992).
Activity calls are given as the source filed them. The calls are words filed in the database; no cut-off is given here.

Assays:
[1] = Competitive Inhibition constant on jack bean mannosidase; NI=No inhibition; conditions: Canavalia ensiformis
[2] = Competitive Inhibition constant on almonds beta Glucosidase; NI=No inhibition; conditions: Prunus dulcis
[3] = pKa value was determined; assay type: physicochemical
[4] = Percentase inhibition on glucosidase I of glycoprotein trimming from pig liver at 1 mM concentration; assay type: functional; conditions: Sus scrofa
[5] = species on record: Sus scrofa; experiment: Percentase inhibition on glucosidase I of glycoprotein trimming from pig liver at 2.5 mM concentration; NI=No inhibition; assay type: functional, tissue-based

Row | SMILES | Activity [1] | Activity [2] | pKa [3] | inhibition [5] | inhibition at 1000 µM [4]
1 | OC1CCN2C[C@H](O)[C@@H](O)[C@H](O)C12 (some centres undefined) | – | – | ~6.5 | – | –
2 | CCC(O)[C@H]1NC[C@H](O)[C@@H](O)[C@@H]1O (some centres undefined) | – | – | ~6.5 | inactive | 50%

More lines, main results first:

Row | Activity [1] | Activity [2] | pKa [3] | inhibition [5] | SMILES | inhibition at 1000 µM [4]
3 | inactive | inactive | – | – | CCO[C@@H]1CN[C@H](CO)[C@@H](O)[C@@H]1O | –
4 | – | – | ~6.5 | – | OC[C@H]1NC[C@H](O)[C@@H](O)[C@@H]1O [DUVOGLUSTAT] | –
5 | inactive | inactive | – | – | OC[C@H]1NC[C@@H](F)[C@@H](O)[C@@H]1O | –
